Test results published in patent US12065408B2, “Benzaldehyde compounds with direct polymer destabilizing effects to treat sickle cell disease” (VIRGINIA COMMONWEALTH UNIVERSITY, priority 2022, dated 2024).

Legend:
[1] = ADME properties / oral bioavailability; conditions: in vivo
[2] = biological target: T1, Hb (Homo sapiens, UniProt P69905); assay: Occupancy/dose-dependent p50 shift in human non-sickle blood; assay type: cell-based; conditions: compared to Voxelotor at equivalent drug-Hb occupancy levels
T1 construct: Hemoglobin modification, studies using non-sickling AA blood; from tissue; host or cells: non-sickling AA blood (red cells)
Protocol: Non-sickling human blood was incubated with test compounds at 0.25-2 mM concentrations at 37 °C for 1 hour in 96-well round bottom plates. At conclusion, RBCs were washed once with PBS, followed by lysis with deionized water. Approximately 100 μl aliquots of individual lysates were added to 3 mL of 0.1M potassium phosphate buffer, pH 7.0 in a cuvette and subjected to hemoximetry analysis using a Hemox™ Analyzer (TCS Scientific Corp.) as previously described. Change in p50 values (Δp50) was calculated by subtracting the p50 values of treated samples from the value of the control sample and expressing the difference as a percentage of control p50 values.

[3] = system: RBC sickling; assay: Sickle inhibition in SS blood suspensions under hypoxia (2.5% oxygen); assay type: cell-based; conditions: Homo sapiens, 2 mM compound, homozygous SCD blood, 4 biological replicates
Protocol: All compounds (Comp 1-13) and comparator molecules (VZHE-039, PP-14, INN-310, and Voxelotor) were evaluated following established procedures. Blood samples from individual donors with homozygous SCD (obtained with informed consent) were diluted using Hemox buffer solution with the addition of glucose (10 mM) and BSA (0.2%) to adjust hematocrit of the blood suspensions to 20%, which standardizes the procedure to normalize the ratio of RBCs to drug, for assay consistency and reproducibility. Briefly, blood suspensions were incubated under room air in the presence of various concentrations of test compounds (0-2 mM) at 37° ° C. for 1 hour in 96-well round bottom plates. Subsequently, the suspensions were incubated with a hypoxic gas mixture (2.5% Oxygen gas/balance Nitrogen gas) at 37° C. for up to 2 hours prior to fixation with 2% glutaraldehyde solution without exposure to air. The fixated blood aliquots were evaluated by microscopic morphological analysis (image analysis on Image J software) to identify the proportion of sickled and non-sickled RBCs, and sickle inhibition calculated based on the % change from negative control (DMSO).

[4] = 14-day repeat-dose safety (clinical observations, histopathology) in rats; assay type: in vivo, rat; conditions: 100 mg/kg oral once daily for 14 days
Protocol: (§1) Repeat oral doses of each compound were administered by oral gavage for 14 days to male and female SD rats (n=3). […] Steady state exposures for the final dosing interval on Day 14 were similar to total compound exposure from single-dose PK.
(§2) Repeat doses of each compound were administered once daily as oral suspensions by gavage in 0.5% carboxy methylcellulose for 14 days at 100 mg/kg. Whole blood was collected at 7 time-points for up to 24 hours during the final dosing interval on Day 14. Clinical observations, body weights, and food consumption were recorded throughout the 14 day study. Clinical chemistry and hematologic parameters were assessed, and histopathology was performed on organs after 14 days of exposure to study drug.

[5] = 14-day repeat-dose oral pharmacokinetics in rats; assay type: in vivo, rat; conditions: 14-day repeat oral doses
Protocol: as §1, §2

[6] = Single-dose oral pharmacokinetics in rats; assay type: in vivo, rat
Protocol: Single-dose pharmacokinetics (PK) in male Sprague Dawley (SD) rats (n=4) were assessed for each compound, and the maximum or peak whole blood concentration and area under the curve are shown in Table 5.
Single doses of each compound were administered as oral suspensions by gavage in 0.5% carboxy methylcellulose at 100 mg/kg. Whole blood levels were collected for at least 72 hours after dose administration. Bioanalyses were performed with liquid chromatography-tandem mass spectrometry […].

[7] = system: RBC sickling; assay: Oxygen-independent sickle inhibition in SS blood suspensions under anoxia (100% nitrogen); assay type: cell-based, human; conditions: for inhibition at 2000 µM: Homo sapiens, 2 mM compound, homozygous SCD blood, 4 biological replicates; for inhibition at 2000 µM / polymer destabilizing effects (sickle inhibition in anoxia), in words: anoxia; for polymer destabilizing effects in anoxia time-course experiments, in words: up to 2.5 h
Protocol: To establish oxygen-independent sickle inhibition, the incubation chamber was subsequently opened and exposed to room air for 15 minutes to ensure complete re-oxygenation and reversal of the sickled cells to normal round cells. Reversal was confirmed by microscopy. The incubation chamber was then closed, and the assay was repeated with incubation in 100% nitrogen gas for 1 hour (for screening), or up to 2.5 h (for time-course studies), with collection and fixation of blood aliquots at defined intervals. Aliquot samples were again subjected to microscopic morphological analysis of bright field images to identify the proportion of sickled and non-sickled cells, and sickle inhibition calculated.

T1 sequence (P69905 2-142 limits assumed): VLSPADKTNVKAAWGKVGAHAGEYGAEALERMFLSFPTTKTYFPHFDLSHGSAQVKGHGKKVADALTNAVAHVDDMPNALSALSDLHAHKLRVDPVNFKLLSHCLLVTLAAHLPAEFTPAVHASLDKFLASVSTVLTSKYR
T1 sequence (P68871 2-147 partner limits assumed): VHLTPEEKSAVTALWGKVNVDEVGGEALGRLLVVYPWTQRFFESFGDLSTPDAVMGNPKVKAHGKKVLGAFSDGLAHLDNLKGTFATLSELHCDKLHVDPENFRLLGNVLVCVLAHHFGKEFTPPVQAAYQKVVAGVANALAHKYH

O=Cc1c(O)cccc1OCc1ccccn1 [Comp 2, 2-hydroxy-6-(pyridin-2-ylmethoxy)benzaldehyde]
absorption, distribution, metabolism and elimination (ADME) properties [1]: acceptable
changes in p50 of Hb in human blood [2]: relatively weak changes in p50
inhibition at 2000 µM [3]: 72.8 ± 13%
clinical and histopathologic changes after 14 days of exposure [4]: No clinical or histopathologic changes
oral exposure levels, repeat dose, in words [5]: greatest oral exposure levels observed to date
oral exposure levels, single dose, in words [6]: greatest oral exposure levels observed to date
inhibition at 2000 µM [7]: 63.2 ± 17.2%
polymer destabilizing effects (sickle inhibition in anoxia), in words [7]: most potent polymer destabilizers discovered to date
polymer destabilizing effects in anoxia time-course experiments, in words [7]: most potent and sustained polymer destabilizing effects observed to date

COc1ccc(OCc2cccc(CO)n2)c(C=O)c1 [TD-7, reference compound]
inhibition at 2000 µM [3]: 80.6 ± 5.8%
inhibition at 2000 µM [7]: 20.4 ± 2.9%

O=Cc1c(O)cccc1OCc1cncc(F)c1 [Comp 4, 2-((5-fluoropyridin-3-yl)methoxy)-6-hydroxybenzaldehyde]
inhibition at 2000 µM [3]: 64.3 ± 24.5%
inhibition at 2000 µM [7]: 69.6 ± 13.4%

O=Cc1c(O)cccc1OCc1ncccc1F [Comp 5, 2-((3-fluoropyridin-2-yl)methoxy)-6-hydroxybenzaldehyde]
absorption, distribution, metabolism and elimination (ADME) properties [1]: acceptable
changes in p50 of Hb in human blood [2]: relatively weak changes in p50
inhibition at 2000 µM [3]: 66.6 ± 9.4%
clinical and histopathologic changes after 14 days of exposure [4]: No clinical or histopathologic changes
oral exposure levels, repeat dose, in words [5]: greatest oral exposure levels observed to date
oral exposure levels, single dose, in words [6]: greatest oral exposure levels observed to date
inhibition at 2000 µM [7]: 66.5 ± 21.1%

O=Cc1c(O)cccc1OCc1ccncc1 [Comp 3, 2-hydroxy-6-(pyridin-4-ylmethoxy)benzaldehyde]
inhibition at 2000 µM [3]: 54.1 ± 14.7%
inhibition at 2000 µM [7]: 26.2 ± 8.6%

O=Cc1c(O)cccc1OCc1cccnc1F [Comp 6, 2-((2-fluoropyridin-3-yl)methoxy)-6-hydroxybenzaldehyde]
inhibition at 2000 µM [3]: 67.1 ± 5.8%
inhibition at 2000 µM [7]: 32.6 ± 28.5%

O=Cc1c(O)cccc1OCc1cccnc1 [Comp 1, 2-hydroxy-6-(pyridin-3-ylmethoxy)benzaldehyde]
absorption, distribution, metabolism and elimination (ADME) properties [1]: acceptable
changes in p50 of Hb in human blood [2]: relatively weak changes in p50
inhibition at 2000 µM [3]: 74.8 ± 15.9%
clinical and histopathologic changes after 14 days of exposure [4]: No clinical or histopathologic changes
oral exposure levels, single dose, in words [6]: greatest oral exposure levels observed to date
inhibition at 2000 µM [7]: 71.9 ± 16%
polymer destabilizing effects (sickle inhibition in anoxia), in words [7]: most potent polymer destabilizers discovered to date
polymer destabilizing effects in anoxia time-course experiments, in words [7]: most potent and sustained polymer destabilizing effects observed to date

O=Cc1c(F)cc(F)cc1OCc1ncccc1F [Comp 13, 2,4-difluoro-6-((3-fluoropyridin-2-yl)methoxy)benzaldehyde]
inhibition at 2000 µM [3]: 63.6 ± 24.3%
inhibition at 2000 µM [7]: -0.5 ± 2.7%
polymer destabilizing effects (sickle inhibition in anoxia), in words [7]: completely negates the polymer destabilization effects

O=Cc1c(O)cccc1OCc1ncccn1 [Comp 11, 2-hydroxy-6-(pyrimidin-2-ylmethoxy)benzaldehyde]
inhibition at 2000 µM [3]: 67.4 ± 18.2%
inhibition at 2000 µM [7]: 45.1 ± 10.8%

CC(C)n1nccc1-c1ncccc1COc1cccc(O)c1C=O [Voxelotor, reference compound]
inhibition at 2000 µM [3]: 79.9 ± 6.2%
inhibition at 2000 µM [7]: 1.5 ± 5.5%
polymer destabilizing effects (sickle inhibition in anoxia), in words [7]: did not demonstrate any sickle inhibition in anoxic conditions

O=Cc1c(OCc2cccnc2)ccc(F)c1O [Comp 12, 3-fluoro-2-hydroxy-6-(pyridin-3-ylmethoxy)benzaldehyde]
inhibition at 2000 µM [3]: 68.6 ± 12%
inhibition at 2000 µM [7]: 28.7 ± 6.9%
polymer destabilizing effects (sickle inhibition in anoxia), in words [7]: significantly reduced the potency of polymer inhibition

O=Cc1c(O)cccc1OCc1cccc(CO)n1 [VZHE-039, reference compound]
inhibition at 2000 µM [3]: 75.3 ± 14.3%
clinical and histopathologic changes after 14 days of exposure [4]: Both clinical and histopathologic changes in the liver, including hepatocyte necrosis
inhibition at 2000 µM [7]: 68.9 ± 17.7%

O=Cc1c(O)cccc1OCc1ncccc1Cl [Comp 8, 2-((3-chloropyridin-2-yl)methoxy)-6-hydroxybenzaldehyde]
inhibition at 2000 µM [3]: 69.7 ± 8%
inhibition at 2000 µM [7]: 18.3 ± 8.4%

O=Cc1c(O)cccc1OCc1cccnc1Cl [Comp 7, 2-((2-chloropyridin-3-yl)methoxy)-6-hydroxybenzaldehyde]
inhibition at 2000 µM [3]: 36.1 ± 19.7%
inhibition at 2000 µM [7]: 9.4 ± 10.7%

COc1ccc(OCc2ccccn2)c(C=O)c1 [INN-310, reference compound]
inhibition at 2000 µM [3]: 69.9 ± 20%
inhibition at 2000 µM [7]: 17.9 ± 7%
polymer destabilizing effects (sickle inhibition in anoxia), in words [7]: only weak potency in anoxia

O=Cc1c(F)cc(F)cc1OCc1ccccn1 [Comp 9, 2,4-difluoro-6-(pyridin-2-ylmethoxy)benzaldehyde]
inhibition at 2000 µM [3]: 68.1 ± 29.8%
inhibition at 2000 µM [7]: 0%
polymer destabilizing effects (sickle inhibition in anoxia), in words [7]: completely negates the polymer destabilization effects

O=Cc1c(O)cccc1OCc1cncnc1 [Comp 10, 2-hydroxy-6-(pyrimidin-5-ylmethoxy)benzaldehyde]
inhibition at 2000 µM [3]: 76.6 ± 10.9%
inhibition at 2000 µM [7]: 75.6 ± 18.5%

O=Cc1c(O)cccc1OCc1ccccc1 [Reference A, 2-(benzyloxy)-6-hydroxybenzaldehyde, reference compound]
polymer destabilizing effects (sickle inhibition in anoxia), in words [7]: potent polymer destabilizing effects
